# Measurements published in patent US6346514B1, “Pharmaceutical lysine-containing polypeptide compositions and methods of use thereof” (priority 1991, dated 2002).
# System: Vibrio anguillarum (V-775)
# Assay: Vaccine augmentation in Rainbow trout challenged with Vibrio anguillarum
# Type: in vivo, Rainbow trout (Oncorhynchus mykiss)
# Protocol: In the present investigation, fish were obtained and inoculated at approximately 12 weeks of age. Immunologic studies were conducted under a variety of conditions in which fish were provided with vaccination to observe vaccine augmentation, and under conditions in which no vaccine was provided prior to inoculum. The effects of exposure time, HM897 concentration, and vaccine on mortalities relative to control studies in which no HM897 was administered provided data for analysis of the immunologic effect of HM897.
# The study was conducted using Rainbow trout (Oncorhynchus mykiss) to compare the effects of a standard fish vaccine to the protection provided by varying dosages of HM897. The fish were challenged with Vibrio anguillarum (V-775), a bacteria that causes fatal vibriosis, typically 3-5 days following pathogen exposure.
# Rainbow Trout (Oncorhynchus mykiss) weighing approximately 5 grams were used as test organisms. The fish were obtained from Cran-Mar Trout Farm. Upon arrival at BRL's facility, the fish were quarantined for a minimum of seven days, and observed to be disease free. During this period, the fish were held at a stable temperature. There was consistent water quality in an aerated flow-through system with a flow rate of approximately 30 liters per hour. During the holding period the fish were observed daily for signs of disease, stress, injury, hemorrhaging, and external parasite. The fish were not fed 48 hours prior to testing.
# The Rainbow trout used in this study weighed an average of 5 grams. The fish were divided into 21 groups with 50 fish per group. Each group of 50 fish was maintained in two 10-gallon tanks (25 fish/tank).
# The level of bacterial dilution to achieve a LD75 (the level designed to kill 75% of the non-vaccinated fish) was a dilution of 10^−4. to 10^−5. The challenge bacteria were grown for 48 hours at 25° C in trypticase soy broth. The 10^−4 dilution was made from this broth in 0.9% saline. All fish excepting the control group that received no bacterial challenge were inoculated 7 days after exposure to HM897.
# Rainbow trout hatchling were exposed to the concentration of HM897 as described below. Some of the fish had been vaccinated while others had received no vaccination. In each tank, fifty vaccinated or unvaccinated fish were exposed for a period of 5 minutes to HM897, and then removed and placed in an assigned tank according to the group number.
# The positive control group (III) received a vaccine made from Vibrio anguillarum (V-775). This was made through a fermentation and extraction process in the BRL laboratory facility and is equivalent to the aquaculture industry standard vibrio vaccine.
# All groups scheduled to be challenged with the Vibrio anguillarum bacterium were challenged at the LD75 dilution on day seven of the experiment by i.p. injection of 0.1 mL of 10^−4 bacterial dilution. The fish were observed daily for mortalities.
substance,measurement,setting,value
Thr-Ala-Glu-Glu-Lys (TAEEK) [HM897],Cumulative Mortalities,"Day 17, Group IVd: vaccinated, HM897 100 μg/38 liters",17
same,Cumulative Mortalities,"Day 17, Group Va: not vaccinated, HM897 10 μg/38 liters",33
same,Cumulative Mortalities,"Day 17, Group Vb: not vaccinated, HM897 25 μg/38 liters",33
same,Cumulative Mortalities,"Day 17, Group Vc: not vaccinated, HM897 75 μg/38 liters",34
same,Cumulative Mortalities,"Day 18, Group IVa: vaccinated, HM897 2.5 μg/38 liters",13
same,Cumulative Mortalities,"Day 18, Group IVb: vaccinated, HM897 10 μg/38 liters",7
same,Cumulative Mortalities,"Day 18, Group IVc: vaccinated, HM897 50 μg/38 liters",10
same,Cumulative Mortalities,"Day 18, Group IVd: vaccinated, HM897 100 μg/38 liters",17
same,Cumulative Mortalities,"Day 18, Group Va: not vaccinated, HM897 10 μg/38 liters",33
same,Cumulative Mortalities,"Day 18, Group Vb: not vaccinated, HM897 25 μg/38 liters",33
same,Cumulative Mortalities,"Day 18, Group Vc: not vaccinated, HM897 75 μg/38 liters",34
same,Cumulative Mortalities,"Day 18, Group Vd: not vaccinated, HM897 150 μg/38 liters",32
same,Cumulative Mortalities,"Day 19, Group IVa: vaccinated, HM897 2.5 μg/38 liters",13
same,Cumulative Mortalities,"Day 19, Group IVb: vaccinated, HM897 10 μg/38 liters",7
same,Cumulative Mortalities,"Day 19, Group IVc: vaccinated, HM897 50 μg/38 liters",10
same,Cumulative Mortalities,"Day 19, Group IVd: vaccinated, HM897 100 μg/38 liters",17
same,Cumulative Mortalities,"Day 19, Group Va: not vaccinated, HM897 10 μg/38 liters",33
same,Cumulative Mortalities,"Day 19, Group Vb: not vaccinated, HM897 25 μg/38 liters",33
same,Cumulative Mortalities,"Day 19, Group Vc: not vaccinated, HM897 75 μg/38 liters",34
same,Cumulative Mortalities,"Day 19, Group Vd: not vaccinated, HM897 150 μg/38 liters",32
same,Cumulative Mortalities,"Day 20, Group IVa: vaccinated, HM897 2.5 μg/38 liters",13
same,Cumulative Mortalities,"Day 20, Group IVb: vaccinated, HM897 10 μg/38 liters",7
same,Cumulative Mortalities,"Day 20, Group IVc: vaccinated, HM897 50 μg/38 liters",10
same,Cumulative Mortalities,"Day 20, Group IVd: vaccinated, HM897 100 μg/38 liters",17
same,Cumulative Mortalities,"Day 20, Group Va: not vaccinated, HM897 10 μg/38 liters",33
same,Cumulative Mortalities,"Day 20, Group Vb: not vaccinated, HM897 25 μg/38 liters",33
same,Cumulative Mortalities,"Day 20, Group Vc: not vaccinated, HM897 75 μg/38 liters",34
same,Cumulative Mortalities,"Day 20, Group Vd: not vaccinated, HM897 150 μg/38 liters",32
same,Cumulative Mortalities,"Day 21, Group IVa: vaccinated, HM897 2.5 μg/38 liters",13
same,Cumulative Mortalities,"Day 21, Group IVb: vaccinated, HM897 10 μg/38 liters",7
same,Cumulative Mortalities,"Day 21, Group IVc: vaccinated, HM897 50 μg/38 liters",10
same,Cumulative Mortalities,"Day 21, Group IVd: vaccinated, HM897 100 μg/38 liters",17
same,Cumulative Mortalities,"Day 21, Group Va: not vaccinated, HM897 10 μg/38 liters",33
same,Cumulative Mortalities,"Day 21, Group Vb: not vaccinated, HM897 25 μg/38 liters",33
same,Cumulative Mortalities,"Day 21, Group Vc: not vaccinated, HM897 75 μg/38 liters",34
same,Cumulative Mortalities,"Day 21, Group Vd: not vaccinated, HM897 150 μg/38 liters",32
same,Percent Mortalities,"Group IVa: vaccinated, HM897 2.5 μg/38 liters",26%
same,Percent Mortalities,"Group IVb: vaccinated, HM897 10 μg/38 liters",14%
same,Percent Mortalities,"Group IVc: vaccinated, HM897 50 μg/38 liters",20%
same,Percent Mortalities,"Group IVd: vaccinated, HM897 100 μg/38 liters",34%
same,Percent Mortalities,"Group Va: not vaccinated, HM897 10 μg/38 liters",66%
same,Percent Mortalities,"Group Vb: not vaccinated, HM897 25 μg/38 liters",66%
same,Percent Mortalities,"Group Vc: not vaccinated, HM897 75 μg/38 liters",68%
same,Percent Mortalities,"Group Vd: not vaccinated, HM897 150 μg/38 liters",64%
same,Percent Mortalities,"Group Ve: not vaccinated, HM897 250 μg/38 liters",68%
same,protection against the bacterial infection,HM897 exposure without vaccine (Groups Va to Ve),no protection
same,Total Mortalities,"Table XI-3, Group IVa: vaccinated, HM897 2.5 μg/38 liters",13
same,Total Mortalities,"Table XI-3, Group IVb: vaccinated, HM897 10 μg/38 liters",7
same,Total Mortalities,"Table XI-3, Group IVc: vaccinated, HM897 50 μg/38 liters",10
same,Total Mortalities,"Table XI-3, Group IVd: vaccinated, HM897 100 μg/38 liters",17
same,Total Mortalities,"Table XI-3, Group Va: not vaccinated, HM897 10 μg/38 liters",33
same,Total Mortalities,"Table XI-3, Group Vb: not vaccinated, HM897 25 μg/38 liters",33
same,Total Mortalities,"Table XI-3, Group Vc: not vaccinated, HM897 75 μg/38 liters",34
same,Total Mortalities,"Table XI-3, Group Vd: not vaccinated, HM897 150 μg/38 liters",32
same,Total Mortalities,"Table XI-3, Group Ve: not vaccinated, HM897 250 μg/38 liters",34
same,Total Mortalities,"Table XI-4, Group IVa: vaccinated, HM897 2.5 μg/38 liters",13
same,Total Mortalities,"Table XI-4, Group IVb: vaccinated, HM897 10 μg/38 liters",7
same,Total Mortalities,"Table XI-4, Group IVc: vaccinated, HM897 50 μg/38 liters",10
same,Total Mortalities,"Table XI-4, Group IVd: vaccinated, HM897 100 μg/38 liters",17
same,Total Mortalities,"Table XI-4, Group Va: not vaccinated, HM897 10 μg/38 liters",33
same,Total Mortalities,"Table XI-4, Group Vb: not vaccinated, HM897 25 μg/38 liters",33
same,Total Mortalities,"Table XI-4, Group Vc: not vaccinated, HM897 75 μg/38 liters",34
same,Total Mortalities,"Table XI-4, Group Vd: not vaccinated, HM897 150 μg/38 liters",32
same,Total Mortalities,"Table XI-4, Group Ve: not vaccinated, HM897 250 μg/38 liters",34
same,augmentation of vaccinations,vaccinated fish exposed to HM897,statistically significant effect
